T/C data for 23 compounds are collected here from PubChem BioAssay AID330 (DTP/NCI, 2004).

The assay concerns P388 leukemia ip, CD2F1 mice, survival T/C. The assay can be described thus: NCI In Vivo Anticancer Drug Screen. Data for tumor model P388 Leukemia (intraperitoneal) in CD2F1 (CDF1) mice. The following applies: endpoint: median survival time, higher = longer survival. The method, boiled down:
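Mice carrying the transplanted tumor received test compound or vehicle. Survival was recorded in each group, and the value is the treated-group measurement divided by that of the vehicle-treated control group.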

Setting [1] is: dose: 50.0 mg/kg/injection, schedule: Q01DX005 (ip), vehicle: saline with Tween-80.
The mark [2] stands for this setting: dose: 100.0 mg/kg/injection, schedule: Q01DX005 (ip), vehicle: saline with Tween-80.
Where [3] appears, read: dose: 200.0 mg/kg/injection, schedule: Q01DX005 (ip), vehicle: saline with Tween-80.
The mark [4] stands for this setting: dose: 60.0 mg/kg/injection, schedule: Q01DX005 (ip), vehicle: saline with Tween-80.
Setting [5] is: dose: 120.0 mg/kg/injection, schedule: Q01DX005 (ip), vehicle: saline with Tween-80.
Setting [6] is: dose: 240.0 mg/kg/injection, schedule: Q01DX005 (ip), vehicle: saline with Tween-80.
[7] abbreviates: dose: 25.0 mg/kg/injection, schedule: Q01DX009 (ip), vehicle: saline with Tween-80.
Where [8] appears, read: dose: 50.0 mg/kg/injection, schedule: Q01DX009 (ip), vehicle: saline with Tween-80.
Where [9] appears, read: dose: 100.0 mg/kg/injection, schedule: Q01DX009 (ip), vehicle: saline with Tween-80.
Where [10] appears, read: dose: 200.0 mg/kg/injection, schedule: Q01DX009 (ip), vehicle: saline with Tween-80.
[11] abbreviates: dose: 60.0 mg/kg/injection, schedule: Q01DX005 (ip), vehicle: Klucel (hydroxypropylcellulose) (HPC).
Where [12] appears, read: dose: 120.0 mg/kg/injection, schedule: Q01DX005 (ip), vehicle: Klucel (hydroxypropylcellulose) (HPC).
Where [13] appears, read: dose: 240.0 mg/kg/injection, schedule: Q01DX005 (ip), vehicle: Klucel (hydroxypropylcellulose) (HPC).

Several values for one entry are separate records, joined by “and”; a condition that tells them apart may be missing. Equal values may be shown once. Toxic doses and inconclusive results are not listed.

On to `CC(C)(CCC(C)(C)NC(=O)C12CC3CC(CC(C3)C1)C2)NC(=O)C12CC3CC(CC(C3)C1)C2`, for which the T/C reads like this: under setting [1], 90 % of control; under setting [2], 97 % of control; under setting [3], 97 % of control.

Take `C/C(=N\NC(=S)N1CCN(c2ccccc2)CC1)c1cnccn1`: the T/C was 103 % of control (dose: 1.56 mg/kg/injection, schedule: Q01DX005 (ip), vehicle: saline with Tween-80); 105 % of control (dose: 3.13 mg/kg/injection, schedule: Q01DX005 (ip), vehicle: saline with Tween-80); 111 % of control and 93 % of control (dose: 6.25 mg/kg/injection, schedule: Q01DX005 (ip), vehicle: saline with Tween-80); 109 % of control (dose: 12.5 mg/kg/injection, schedule: Q01DX005 (ip), vehicle: saline with Tween-80).

For the compound `COc1cc(Cc2nnc(N)[nH]c2=O)cc(OC)c1OC`, the T/C (dose: 6.25 mg/kg/injection, schedule: Q01DX009 (ip), vehicle: saline with Tween-80) is 97 % of control; the T/C (dose: 12.5 mg/kg/injection, schedule: Q01DX009 (ip), vehicle: saline with Tween-80) is 91 % of control; the T/C (dose: 100.0 mg/kg/injection, schedule: Q01DX001 (ip), vehicle: Klucel (hydroxypropylcellulose) (HPC)) was 116 % of control; the T/C (dose: 200.0 mg/kg/injection, schedule: Q01DX001 (ip), vehicle: Klucel (hydroxypropylcellulose) (HPC)) is 89 % of control; the T/C (dose: 400.0 mg/kg/injection, schedule: Q01DX001 (ip), vehicle: Klucel (hydroxypropylcellulose) (HPC)) is 100 % of control.

In the case of `O=C1NC(=O)C(SSC2C(=O)NC(=O)NC2=O)C(=O)N1`, the T/C is, setting by setting: (dose: 50.0 mg/kg/injection, schedule: Q01DX009 (ip), vehicle: Klucel (hydroxypropylcellulose) (HPC)) 109 % of control; (dose: 100.0 mg/kg/injection, schedule: Q01DX009 (ip), vehicle: Klucel (hydroxypropylcellulose) (HPC)) 95 % of control; (dose: 200.0 mg/kg/injection, schedule: Q01DX009 (ip), vehicle: Klucel (hydroxypropylcellulose) (HPC)) 94 % of control.

On to `COC(=O)CC(O)(CCCC(C)(C)O)C(=O)OC1C(OC)=CC23CCCN2CCc2cc4c(cc2C13)OCO4` (stereo not drawn) (tested in a mixture with another compound), for which the T/C (dose: 0.5 mg/kg/injection, schedule: Q01DX009 (ip), vehicle: saline with Tween-80) is 153 % of control; the T/C (dose: 1.0 mg/kg/injection, schedule: Q01DX009 (ip), vehicle: saline with Tween-80) was 201 % of control; the T/C (dose: 2.0 mg/kg/injection, schedule: Q01DX009 (ip), vehicle: saline with Tween-80) is 206 % of control.

As to `CC(C)(C)SC(=S)SCC(=O)c1cc2ccccc2o1`, the T/C is 100 % of control under setting [1], 93 % of control under setting [2] and 93 % of control under setting [3].

For `COC(=O)C1=C/CCCN(CCc2ccccc2)/C=C\1C(=O)OC`, the T/C is 103 % of control (dose: 100.0 mg/kg/injection, schedule: Q01DX001 (ip), vehicle: alcohol); 101 % of control (dose: 200.0 mg/kg/injection, schedule: Q01DX001 (ip), vehicle: alcohol); 97 % of control (dose: 400.0 mg/kg/injection, schedule: Q01DX001 (ip), vehicle: alcohol).

For the compound `O/N=C/c1ccccn1`, the T/C is, setting by setting: (dose: 60.0 mg/kg/injection, schedule: Q01DX005 (ip), vehicle: saline) 92 % of control; (dose: 120.0 mg/kg/injection, schedule: Q01DX005 (ip), vehicle: saline) 101 % of control; (dose: 240.0 mg/kg/injection, schedule: Q01DX005 (ip), vehicle: saline) 100 % of control.

Consider `CC(C)C(NC(=O)C1CSC(C)(C)N1C=O)C(=O)O` (stereo not drawn), for which the T/C under setting [1] was 102 % of control, the T/C under setting [2] is 100 % of control and the T/C under setting [3] is 102 % of control.

For the compound `CC12CCN=C1c1ccc3cc(O)ccc3c1CC2` (stereo not drawn), the T/C reads like this: (dose: 100.0 mg/kg/injection, schedule: Q01DX001 (sc), vehicle: steriod suspending solution) 104 % of control; (dose: 200.0 mg/kg/injection, schedule: Q01DX001 (sc), vehicle: steriod suspending solution) 118 % of control; (dose: 400.0 mg/kg/injection, schedule: Q01DX001 (sc), vehicle: steriod suspending solution) 100 % of control.

As to `CCOC(=O)C(CSC(c1ccccc1)(c1ccccc1)c1ccccc1)NC(=O)CCNC(=O)c1ccccc1` (stereo not drawn), the T/C runs as follows: (dose: 4.0 mg/kg/injection, schedule: Q01DX009 (ip), vehicle: other) 96 % of control; (dose: 8.0 mg/kg/injection, schedule: Q01DX009 (ip), vehicle: other) 112 % of control; (dose: 16.0 mg/kg/injection, schedule: Q01DX009 (ip), vehicle: other) 101 % of control; (dose: 32.0 mg/kg/injection, schedule: Q01DX009 (ip), vehicle: other) 96 % of control; (dose: 50.0 mg/kg/injection, schedule: Q01DX009 (ip), vehicle: other) 104 % of control; (dose: 64.0 mg/kg/injection, schedule: Q01DX009 (ip), vehicle: other) 98 % of control. Besides, the T/C is 95 % of control (dose: 100.0 mg/kg/injection, schedule: Q01DX009 (ip), vehicle: other); 90 % of control (dose: 200.0 mg/kg/injection, schedule: Q01DX009 (ip), vehicle: other); 95 % of control (dose: 400.0 mg/kg/injection, schedule: Q01DX009 (ip), vehicle: other).

Take `COc1cc2c(cc1OC)C(C#N)(Cc1cccc3ccccc13)N(C(=O)c1ccccc1)C=C2` (stereo not drawn): the T/C by setting is: under setting [4], 99 % of control; under setting [5], 101 % of control; under setting [6], 99 % of control.

With `CN1CCN(C(=O)N2CCCc3ccccc32)CC1`, the T/C (dose: 100.0 mg/kg/injection, schedule: Q04DX003 (ip), vehicle: saline) is 101 % of control and the T/C (dose: 200.0 mg/kg/injection, schedule: Q04DX003 (ip), vehicle: saline) is 99 % of control.

On to `CC(C)=CCC/C(C)=C\CCl`, for which the T/C is, setting by setting: under setting [7], 107 % of control; under setting [8], 98 % of control; under setting [9], 87 % of control; under setting [10], 90 % of control.

As to `C=C1CCC2(O)C(=C)C(=O)OC2C2C(=C)CCC12` (stereo not drawn), the T/C was 96 % of control (dose: 4.0 mg/kg/injection, schedule: Q01DX009 (ip), vehicle: Klucel (hydroxypropylcellulose) (HPC)); 100 % of control (dose: 8.0 mg/kg/injection, schedule: Q01DX009 (ip), vehicle: Klucel (hydroxypropylcellulose) (HPC)); 102 % of control (dose: 16.0 mg/kg/injection, schedule: Q01DX009 (ip), vehicle: Klucel (hydroxypropylcellulose) (HPC)); 110 % of control (dose: 32.0 mg/kg/injection, schedule: Q01DX009 (ip), vehicle: Klucel (hydroxypropylcellulose) (HPC)).

Consider `CCN(CC)CCCC(C)Nc1cc(OC)c2nc(C)cc(Cl)c2c1OC` (stereo not drawn), for which the T/C reads like this: under setting [8], 87 % of control; under setting [9], 87 % of control; under setting [10], 95 % of control.

For `C=C(Cl)CN(CCCC(=O)O)c1ccccc1`, the T/C by setting is: (dose: 100.0 mg/kg/injection, schedule: Q04DX003 (ip), vehicle: other) 100 % of control; (dose: 200.0 mg/kg/injection, schedule: Q04DX003 (ip), vehicle: other) 109 % of control; (dose: 400.0 mg/kg/injection, schedule: Q04DX003 (ip), vehicle: other) 90 % of control.

As to `NC(N)=NS(=O)(=O)c1ccc(N=c2c3ccccc3n(Cc3ccccc3)c3ccccc23)cc1`, the T/C by setting is: under setting [1], 97 % of control; under setting [2], 98 % of control.

Consider `NC(=O)c1cccn1Cc1ccccc1SSc1ccccc1Cn1cccc1C(N)=O`, for which the T/C reads like this: under setting [4], 91 % of control; under setting [5], 87 % of control.

In the case of `[O-]c1nc(C(F)(F)F)nc(C(F)(F)F)c1-[n+]1ccccc1`, the T/C runs as follows: under setting [11], 108 % of control; under setting [12], 104 % of control; under setting [13], 96 % of control.

Consider `COC(=O)C(=O)C(C(=O)C(c1ccccc1)c1ccccc1)c1nc2n(c1O)/C(=N/C(=O)Nc1ccc(Cl)cc1)N=N2` (stereo not drawn), for which the T/C under setting [4] was 100 % of control, the T/C under setting [5] was 98 % of control and the T/C under setting [6] was 99 % of control.

`CCC1(O)C(=O)c2ccccc2N(c2ccccc2)C1=O` (stereo not drawn): the T/C reads like this: under setting [11], 91 % of control; under setting [12], 90 % of control; under setting [13], 90 % of control.

`O=c1[nH]c(O)c(N=Nc2ccc([N+](=O)[O-])cc2[N+](=O)[O-])c(=O)[nH]1`: the T/C reads like this: under setting [7], 113 % of control; under setting [8], 102 % of control (2×) and 114 % of control; under setting [9], 103 % of control and 112 % of control; under setting [10], 102 % of control and 111 % of control.
